Assay results: ChEMBL document CHEMBL1156829 (Proc Natl Acad Sci U S A, 2008)
pEC50: −log10 of the molar value.

Legend:
[1] = test system: Plasmodium falciparum; assay: NOVARTIS: Inhibition of Plasmodium falciparum W2 (drug-resistant) proliferation in erythrocyte-based infection assay; type: functional, organism-based; conditions: Plasmodium falciparum, W2; read-out: EC50
[2] = test system: Plasmodium falciparum; assay: NOVARTIS: Inhibition of Plasmodium falciparum 3D7 (drug-susceptible) proliferation in erythrocyte-based infection assay; type: functional, organism-based; conditions: Plasmodium falciparum, 3D7
[3] = NOVARTIS: Cytotoxicity against human hepatocellular carcinoma cell line (Huh7); type: toxicity, cell-based, Huh-7; conditions: Huh7 cells (hepatocellular carcinoma cell line)

| Compound | pEC50 [1] | pEC50 [2] | CC50 [3] [µM] |
| --- | --- | --- | --- |
| COc1cc(CN(CC[C@H](c2ccccc2)c2c(O)ccc3ccccc23)Cc2ccccc2)cc(OC)c1 | 7.12 | 6.15 | > 10 |
| O=C(NCCN1CCCCC1)c1ccc(OC2CCN(CC3CCCCC3)CC2)c(Cl)c1 | 5.93 | 6.46 | 5.37 |
| COc1ccc2c(c1)C(C)=CC(C)(C)N2C(=O)CSc1nnc(-c2ccc(C)cc2)o1 | < 5.90 | 6.33 | > 10 |
| Cc1nc(N2CCCCC2)c2c(C)c(C(=O)N3CCN(c4cccc(Cl)c4)CC3)sc2n1 | 6.50 | < 4.90 | > 100 |
| CN(C)c1ccc(/C=C/c2cccc(/C=C/c3ccc(N(C)C)cc3)[n+]2C)cc1 | 6.53 | 6.68 | 2.53 |
| C(=C\c1ccccc1)/CNC1CCN(Cc2ccccc2)CC1 | 6.18 | 6.00 | > 10 |
| COc1ccc(CNC(=O)CCc2cn(Cc3cc(C)ccc3C)c3ccccc23)cc1OC | < 5.90 | < 6.07 | > 10 |
| COc1ccccc1/C=C\CN(C(=O)c1ccc(C)cc1)C(c1ccccc1)c1ccccc1 | < 5.87 | 5.95 | > 4.36 |
| Oc1ccc(-c2ccccc2)cc1CN1CCCCC1 | 6.88 | 5.97 | > 10 |
| Clc1ccc2c(NC3CCCCCCC3)ccnc2c1 | 6.06 | 5.98 | > 13.7 |
| CCc1cc(=O)n(C)c(SC(CC)C(=O)Nc2ccc(F)cc2)n1 (stereo not drawn) | 6.42 | 6.32 | > 100 |
| O=C(Cc1ccc(F)cc1Cl)N1CCN(c2cccc3c2C(=O)N(Cc2ccccn2)C3=O)CC1 | < 5.93 | < 5.90 | > 10 |
| CCC(=O)N(C)CCCNc1ccnc2cc(Cl)ccc12 | 6.47 | 6.33 | > 100 |
| COC(=O)c1c(-c2c(Cl)cccc2Cl)noc1C=CNc1ccccc1 | 5.06 | < 4.90 | 76.8 |
| Cc1cc(N2CCN(Cc3ccc(F)cc3)CC2)n2c(nc3ccccc32)c1C#N | 6.28 | 6.20 | > 100 |
| CC(=O)Nc1cccc(-c2cncc(-c3ccc(C(=O)O)cc3)n2)c1 | 5.65 | 5.94 | > 100 |
| COc1cc(C(=O)NC(c2cccs2)c2cc(Cl)c3cccnc3c2O)cc(OC)c1OC (stereo not drawn) | 5.91 | 5.83 | > 100 |
| COCCNc1cc(-c2ccccn2)nc(-c2ccccn2)n1 | 6.20 | 6.36 | > 10 |
| Oc1ccccc1Nc1nc(NC2CCCC2)c2ccccc2n1 | 6.06 | 6.28 | 16.7 |
| Cc1ccc2ncnc(Nc3cccc(C(F)(F)F)c3)c2c1 | 5.66 | 6.02 | 27.9 |
| COc1ccc2c(Cl)c(C(=O)Nc3cc(C)on3)sc2c1Cl | 6.50 | 6.37 | > 100 |
| CCCCCCN(C(=O)c1ccc(CCCCC)cc1)C(CC)c1nc2ccccc2c(=O)n1-c1ccccc1OC (stereo not drawn) | 6.16 | 5.99 | > 10 |
| CN(C)CCNc1cc(-c2ccccc2)nc2ccccc12 | 6.09 | 6.16 | 21.2 |
| O=c1[nH]n(CC2COC(c3ccccc3)O2)c(=O)c2ccccc12 (stereo not drawn) | 6.31 | 6.17 | > 100 |
| CCc1ccc(C(=O)C[n+]2cc(-c3ccc(OC)cc3)n3c2CCC3)cc1 | 6.07 | 6.17 | > 98 |
| CCSCCOC(=O)C1=C(C)NC2=C(C(=O)CCC2)C1c1ccc(OC)c(Br)c1 (stereo not drawn) | 6.44 | 6.43 | > 100 |

| Compound | pEC50 [1] | pEC50 [2] | CC50 [3] [µM] |
| --- | --- | --- | --- |
| COc1ccc(-n2nc(C(=O)NCC(=O)Nc3ccc(F)cc3)c3ccccc3c2=O)cc1Cl | < 5.90 | < 5.94 | > 10 |
| CC1=C(C(=O)Nc2ccccn2)C(c2ccc(O)cc2)n2ncnc2N1 (stereo not drawn) | 6.25 | < 5.90 | > 10 |
| COc1cccc2c1OCC(CN1CCC(C(=O)Nc3ccc(-n4cccn4)cc3)CC1)=C2 | < 5.86 | 6.09 | > 100 |
| CC(=O)N(C1=C(N(C)C)C(=O)c2ccccc2C1=O)c1cc(C)cc(C)c1 | 7.38 | 7.64 | 2.23 |
| CCCCN1Cc2ccc(C(=O)NC(C)C)cc2N=C1c1ccc(F)cc1 | 6.49 | 6.14 | > 10 |
| O=C(C1CCN(c2nnnn2-c2ccccc2)CC1)N1CCc2ccccc2C1 | 5.75 | 5.89 | > 100 |
| c1ccc(CSc2nc3ccncc3[nH]2)cc1 | < 5.94 | < 5.90 | > 10 |
| COc1ccc(-n2c(CNC(=O)c3cccc4ccccc34)n[nH]c2=S)cc1 | 5.72 | 5.96 | > 100 |
| O=C1CN(C(=O)CC2CCCCC2)C(c2ccccc2)c2cc(Cl)ccc2N1 (stereo not drawn) | 5.34 | 5.12 | 46.3 |
| N#Cc1ccccc1CN1CCC(Oc2cccc3onc(N)c23)CC1 | 6.72 | < 5.78 | 0.891 |
| CSC(Cl)=C(NC(C)=O)[P+](c1ccccc1)(c1ccccc1)c1ccccc1 | 6.59 | 6.90 | > 100 |
| CC(C)(C[N+](C)(C)C)C1OC2CCCCC2C2C=CCCC21 (stereo not drawn) | 6.25 | 6.00 | > 100 |
| Oc1ccccc1-c1nc(-c2ccccc2)nc(-c2ccc(Br)cc2)n1 | < 5.89 | < 5.93 | > 10 |
| CSc1nnc(-c2cccc([N+](=O)[O-])c2)n1Cc1ccccc1 | 6.31 | 6.19 | > 100 |
| CCCCN(C(=O)CCC(=O)Nc1cc(C)on1)C(C(=O)NC1CCCC1)c1ccc(C)o1 (stereo not drawn) | 7.43 | 7.65 | > 10 |
| CCOC(=O)c1ccc(N(C(=O)CSCC(=O)Nc2cc(C)on2)C(C(=O)NC2CCCCC2)c2ccc(O)c(O)c2)cc1 (stereo not drawn) | < 5.90 | < 6.50 | > 10 |
| Cc1cc(Nc2cc3ccccc3cc2O)n2ncnc2n1 | 5.89 | 5.87 | 1.75 |
| CCCC1(CCC)NC(=S)N(c2ccc(C)c(C)c2)N1 | < 6.24 | < 5.90 | > 10 |
| Cc1cc(N2CCC(C)CC2)nc2ccc(NC(=O)c3ccc([N+](=O)[O-])o3)cc12 | 5.67 | 5.78 | 21.9 |
| O=C(C=Cc1ccccc1)Nc1ccc(-c2nc3cc(NC(=O)C=Cc4ccccc4)ccc3[nH]2)cc1 | 6.94 | 7.25 | 5.7 |
| COc1ccc(-c2noc(CC(=O)Nc3ccccc3C#N)n2)cc1 | 5.86 | 5.22 | > 100 |
| CCCCCN(C(=O)c1ccc2ccccc2c1)C(CC)c1nc2ccccc2c(=O)n1-c1ccc(Cl)cc1C (stereo not drawn) | 6.23 | 6.02 | > 10 |
| O=C(Nc1cccc(C2=NCCN2)c1)c1ccc(C(=O)Nc2cccc(C3=NCCN3)c2)cc1 | 6.75 | 6.22 | > 10 |
| COCCOC(=O)C1=C(C)NC2=C(C(=O)CC(c3ccc(OC)c(OC)c3)C2)C1c1ccccc1C (stereo not drawn) | 7.49 | 6.96 | > 100 |
| C[n+]1oc(C=Cc2ccccc2)cc1C=Cc1ccccc1 | 7.54 | 7.16 | 21.2 |
